{"source": "patent US9884868B2", "about": "“TGF-beta inhibitors” (Rigel Pharmaceuticals, Inc., priority 2015, dated 2018)"}
{"biological_target": "HIS-TGF-βR1 T204D (Homo sapiens (Human), UniProt P36897, T204D)", "sequence (P36897 34-503 T204D)": "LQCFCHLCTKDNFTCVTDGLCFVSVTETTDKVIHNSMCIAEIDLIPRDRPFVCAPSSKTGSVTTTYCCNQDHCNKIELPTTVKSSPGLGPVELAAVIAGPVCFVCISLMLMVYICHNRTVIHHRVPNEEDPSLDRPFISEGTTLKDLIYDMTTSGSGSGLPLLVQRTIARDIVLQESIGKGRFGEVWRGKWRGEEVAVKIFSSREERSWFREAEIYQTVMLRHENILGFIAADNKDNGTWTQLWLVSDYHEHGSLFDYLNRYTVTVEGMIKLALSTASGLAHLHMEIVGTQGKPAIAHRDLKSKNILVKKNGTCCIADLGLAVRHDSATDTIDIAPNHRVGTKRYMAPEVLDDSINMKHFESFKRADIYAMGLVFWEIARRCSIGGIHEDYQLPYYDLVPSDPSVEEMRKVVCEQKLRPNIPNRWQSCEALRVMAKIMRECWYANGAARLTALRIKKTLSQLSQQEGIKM", "experiment": "HTRF probe displacement assay with HIS-TGF-βR1 T204D", "settings": "not given", "units": {"IC50": "nM"}}
{"smiles": "NC(=O)c1cnc2ccc(-c3c(-c4ccc(F)c(Cl)c4)ncn3[C@H]3C[C@@H](O)C3)nn12", "note": "[140′, 6-(4-(3-chloro-4-fluorophenyl)-1-((1s,3s)-3-hydroxycyclobutyl)-1H-imidazol-5-yl)imidazo[1,2-b]pyridazine-3-carboxamide]", "IC50": 2.8}
{"biological_target": "HIS-TGF-βR1 T204D (Homo sapiens (Human), UniProt P36897, T204D)", "experiment": "HTRF probe displacement assay with HIS-TGF-βR1 T204D", "settings": "read-out: TGFbr1 IC50; HTRF probe displacement, 1 nM HIS-TGF-βR1 T204D, 1 hour at room temperature", "units": {"IC50": "nM"}}
{"smiles": "CC(C)OCCn1cnc(-c2ccc(F)cc2)c1-c1ccc2ncc(C#N)n2n1", "note": "[11′, 6-(4-(4-fluorophenyl)-1-(2-isopropoxyethyl)-1H-imidazol-5-yl)imidazo[1,2-b]pyridazine-3-carbonitrile]", "IC50": 3}
{"smiles": "CCn1cnc(-c2ccc(F)c(Cl)c2)c1-c1ccc2ncc(C#N)n2c1", "note": "[94′, 6-(4-(3-chloro-4-fluorophenyl)-1-ethyl-1H-imidazol-5-yl)imidazo[1,2-a]pyridine-3-carbonitrile]", "IC50": 13.1}
{"smiles": "N#Cc1cnc2ccc(-c3c(-c4ccc(F)cc4)ncn3C3CCC(F)(F)C3)nn12", "note": "(stereo not shown) [5′, 6-(1-(3,3-difluorocyclopentyl)-4-(4-fluorophenyl)-1H-imidazol-5-yl)imidazo[1,2-b]pyridazine-3-carbonitrile]", "IC50": 5.5}
{"smiles": "NC(=O)c1cnc2ccc(-c3c(-c4ccc(F)cc4)ncn3CCO)nn12", "note": "[133′, 6-(4-(4-fluorophenyl)-1-(2-hydroxyethyl)-1H-imidazol-5-yl)imidazo[1,2-b]pyridazine-3-carboxamide]", "IC50": 3.1}
{"smiles": "CC(C)n1cnc(-c2ccc(F)cc2)c1-c1ccc2ncc(C(N)=O)n2c1", "note": "[170′, 6-(4-(4-fluorophenyl)-1-isopropyl-1H-imidazol-5-yl)imidazo[1,2-a]pyridine-3-carboxamide]", "IC50": 0.5}
{"smiles": "CC(F)(F)Cn1cnc(-c2ccc(F)cc2)c1-c1ccc2ncc(C(N)=O)n2n1", "note": "[137′, 6-(1-(2,2-difluoropropyl)-4-(4-fluorophenyl)-1H-imidazol-5-yl)imidazo[1,2-b]pyridazine-3-carboxamide]", "IC50": 0.6}
{"smiles": "Fc1ccc(-c2ncn(CC(F)F)c2-c2ccc3ncc(C(F)F)n3n2)cc1", "note": "[Example 215′, 6-(1-(2,2-difluoroethyl)-4-(4-fluorophenyl)-1H-imidazol-5-yl)-3-(difluoromethyl)imidazo[1,2-b]pyridazine]", "IC50": 0.8}
{"smiles": "CC(O)CCn1cnc(-c2ccc(F)cc2)c1-c1ccc2ncc(C(N)=O)n2c1", "note": "(stereo not shown) [156′, 6-(4-(4-fluorophenyl)-1-(3-hydroxybutyl)-1H-imidazol-5-yl)imidazo[1,2-a]pyridine-3-carboxamide]", "IC50": 4.3}
{"smiles": "CCC(C)(C)n1cnc(-c2ccc(F)cc2)c1-c1ccc2ncc(C#N)n2n1", "note": "[30′, 6-(4-(4-fluorophenyl)-1-(tert-pentyl)-1H-imidazol-5-yl)imidazo[1,2-b]pyridazine-3-carbonitrile]", "IC50": 9.2}
{"smiles": "N#Cc1cnc2ccc(-c3c(-c4ccc(F)cc4)ncn3[C@H]3C[C@@H](O)C3)nn12", "note": "[Example 2′]", "IC50": 2.3}
{"smiles": "N#Cc1cnc2ccc(-c3c(-c4ccc(F)c(Cl)c4)ncn3CCF)nn12", "note": "[34′, 6-(4-(3-chloro-4-fluorophenyl)-1-(2-fluoroethyl)-1H-imidazol-5-yl)imidazo[1,2-b]pyridazine-3-carbonitrile]", "IC50": 0.9}
{"smiles": "N#Cc1cnc2ccc(-c3c(-c4ccc(F)cc4)nc4n3CCC4)cn12", "note": "[283B′, 6-(2-(4-fluorophenyl)-6,7-dihydro-5H-pyrrolo[1,2-a]imidazol-3-yl)imidazo[1,2-a]pyridine-3-carbonitrile]", "IC50": 13.8}
{"smiles": "CC(=O)Nc1nc(-c2ccc(F)cc2)c(-c2ccc3nccn3c2)[nH]1", "note": "[Example 295′, N-(4-(4-fluorophenyl)-5-(imidazo[1,2-a]pyridin-6-yl)-1H-imidazol-2-yl)acetamide]", "IC50": 55}
{"smiles": "CC(C)CCn1cnc(-c2ccc(F)c(Cl)c2)c1-c1ccc2ncc(C#N)n2n1", "note": "[49′, 6-(4-(3-chloro-4-fluorophenyl)-1-isopentyl-1H-imidazol-5-yl)imidazo[1,2-b]pyridazine-3-carbonitrile]", "IC50": 1.4}
{"smiles": "CC(C)(O)Cn1cnc(-c2ccc(F)cc2)c1-c1ccc2ncc(C#N)n2c1", "note": "[90′, 6-(4-(4-fluorophenyl)-1-(2-hydroxy-2-methylpropyl)-1H-imidazol-5-yl)imidazo[1,2-a]pyridine-3-carbonitrile]", "IC50": 107}
{"smiles": "CC(F)(F)Cn1cnc(-c2ccc(F)cc2)c1-c1ccc2ncc(C#N)n2n1", "note": "[22′, 6-(1-(2,2-difluoropropyl)-4-(4-fluorophenyl)-1H-imidazol-5-yl)imidazo[1,2-b]pyridazine-3-carbonitrile]", "IC50": 1.2}
{"smiles": "Fc1ccc(-c2ncn(CC(F)F)c2-c2ccc3nccn3c2)cc1F", "note": "[220′, 6-(1-(2,2-difluoroethyl)-4-(3,4-difluorophenyl)-1H-imidazol-5-yl)imidazo[1,2-a]pyridine]", "IC50": 41.4}
{"smiles": "CCn1cnc(-c2ccc(F)cc2)c1-c1ccc2ncc(C#N)n2n1", "note": "[10′, 6-(1-ethyl-4-(4-fluorophenyl)-1H-imidazol-5-yl)imidazo[1,2-b]pyridazine-3-carbonitrile]", "IC50": 2.5}
{"smiles": "N#Cc1cnc2ccc(-c3c(-c4ccc(F)c(Cl)c4)ncn3C34CC(C3)C4)nn12", "note": "[59′, 6-(1-(bicyclo[1.1.1]pentan-1-yl)-4-(3-chloro-4-fluorophenyl)-1H-imidazol-5-yl)imidazo[1,2-b]pyridazine-3-carbonitrile]", "IC50": 1.1}
{"smiles": "NNC(=O)c1cnc2ccc(-c3c(-c4ccc(F)cc4)ncn3CC(F)F)nn12", "note": "[Example 205′, 6-(1-(2,2-difluoroethyl)-4-(4-fluorophenyl)-1H-imidazol-5-yl)imidazo[1,2-b]pyridazine-3-carbohydrazide]", "IC50": 1.8}
{"smiles": "FCCCn1cnc(-c2ccc(F)c(Cl)c2)c1-c1ccc2nccn2c1", "note": "[183′, 6-(4-(3-chloro-4-fluorophenyl)-1-(3-fluoropropyl)-1H-imidazol-5-yl)imidazo[1,2-a]pyridine]", "IC50": 21.6}
{"smiles": "N#Cc1cnc2ccc(-c3c(-c4ccc(F)c(Cl)c4)ncn3C3CCOC3)nn12", "note": "(stereo not shown) [46′, 6-(4-(3-chloro-4-fluorophenyl)-1-(tetrahydrofuran-3-yl)-1H-imidazol-5-yl)imidazo[1,2-b]pyridazine-3-carbonitrile]", "IC50": 1.5}
{"smiles": "CC1(Cn2cnc(-c3ccc(F)c(Cl)c3)c2-c2ccc3ncc(C#N)n3n2)COC1", "note": "[45′, 6-(4-(3-chloro-4-fluorophenyl)-1-((3-methyloxetan-3-yl)methyl)-1H-imidazol-5-yl)imidazo[1,2-b]pyridazine-3-carbonitrile]", "IC50": 2.3}
{"smiles": "Cn1cnc(-c2ccc(F)c(F)c2)c1-c1ccc2cn[nH]c2c1", "note": "[Compound 65, 6-(4-(3,4-Difluorophenyl)-1-methyl-1H-imidazol-5-yl)-1H-indazole]", "IC50": 63.2}
{"smiles": "N#Cc1cnc2ccc(-c3[nH]cnc3-c3ccc(F)cc3)nn12", "note": "[18′, 6-(4-(4-fluorophenyl)-1H-imidazol-5-yl)imidazo[1,2-b]pyridazine-3-carbonitrile]", "IC50": 10.5}
{"smiles": "N#Cc1cnc2ccc(-c3c(-c4ccc(F)c(Cl)c4)ncn3C3CCC3)nn12", "note": "[58′, 6-(4-(3-chloro-4-fluorophenyl)-1-cyclobutyl-1H-imidazol-5-yl)imidazo[1,2-b]pyridazine-3-carbonitrile]", "IC50": 0.8}
{"smiles": "N#Cc1cnc2ccc(-c3c(-c4ccc(F)cc4)ncn3C3CC3)nn12", "note": "[7′, 6-(1-cyclopropyl-4-(4-fluorophenyl)-1H-imidazol-5-yl)imidazo[1,2-b]pyridazine-3-carbonitrile]", "IC50": 2.4}
{"smiles": "C[C@H](O)Cn1cnc(-c2ccc(F)cc2)c1-c1ccc2ncc(C(N)=O)n2c1", "note": "[158′, (S)-6-(4-(4-fluorophenyl)-1-(2-hydroxypropyl)-1H-imidazol-5-yl)imidazo[1,2-a]pyridine-3-carboxamide]", "IC50": 2.7}
{"smiles": "NCc1cnc2ccc(-c3c(-c4ccc(F)cc4)ncn3CC(F)F)nn12", "note": "[196A′, (6-(1-(2,2-difluoroethyl)-4-(4-fluorophenyl)-1H-imidazol-5-yl)imidazo[1,2-b]pyridazin-3-yl)methanamine]", "IC50": 20.1}
{"smiles": "N#Cc1cnc2ccc(-c3c(-c4cccc(O)c4)ncn3CC(F)F)nn12", "note": "[249′, 6-(1-(2,2-difluoroethyl)-4-(3-hydroxyphenyl)-1H-imidazol-5-yl)imidazo[1,2-b]pyridazine-3-carbonitrile]", "IC50": 2.2}
{"smiles": "Cn1cnc(-c2ccc(F)cc2)c1-c1ccc2ncc(C#N)n2n1", "note": "[19′, 6-(4-(4-fluorophenyl)-1-methyl-1H-imidazol-5-yl)imidazo[1,2-b]pyridazine-3-carbonitrile]", "IC50": 9.9}
{"smiles": "CCC(O)Cn1cnc(-c2ccc(F)cc2)c1-c1ccc2ncc(C#N)n2c1", "note": "(stereo not shown) [70′, 6-(4-(4-fluorophenyl)-1-(2-hydroxybutyl)-1H-imidazol-5-yl)imidazo[1,2-a]pyridine-3-carbonitrile]", "IC50": 123}
{"smiles": "Fc1ccc(-c2ncn(CCC(F)(F)F)c2-c2ccc3nccn3c2)cc1Cl", "note": "[182′, 6-(4-(3-chloro-4-fluorophenyl)-1-(3,3,3-trifluoropropyl)-1H-imidazol-5-yl)imidazo[1,2-a]pyridine]", "IC50": 50.8}
{"smiles": "N#Cc1cnc2ccc(-c3c(-c4ccc(F)cc4)ncn3CCCF)nn12", "note": "[21′, 6-(4-(4-fluorophenyl)-1-(3-fluoropropyl)-1H-imidazol-5-yl)imidazo[1,2-b]pyridazine-3-carbonitrile]", "IC50": 1.9}
{"smiles": "CCC(CC)n1cnc(-c2ccc(F)cc2)c1-c1ccc2ncc(C#N)n2c1", "note": "[74′, 6-(4-(4-fluorophenyl)-1-(pentan-3-yl)-1H-imidazol-5-yl)imidazo[1,2-c]pyridine-3-carbonitrile]", "IC50": 152}
{"smiles": "Fc1ccc(-c2ncn([C@H]3CCC(F)(F)C3)c2-c2ccc3nccn3c2)cc1Cl", "note": "[186′, (S)-6-(4-(3-chloro-4-fluorophenyl)-1-(3,3-difluorocyclopentyl)-1H-imidazol-5-yl)imidazo[1,2-a]pyridine]", "IC50": 228}
{"smiles": "N#Cc1cccc(-c2ncn(CC(F)F)c2-c2ccc3ncc(C#N)n3n2)c1", "note": "[Example 236]", "IC50": 2.1}
{"smiles": "CC(C)CCn1cnc(-c2ccc(F)c(Cl)c2)c1-c1ccc2ncc(C(N)=O)n2n1", "note": "[148′, 6-(4-(3-chloro-4-fluorophenyl)-1-isopentyl-1H-imidazol-5-yl)imidazo[1,2-b]pyridazine-3-carboxamide]", "IC50": 1.1}
{"smiles": "N#Cc1cnc2ccc(-c3c(-c4ccc(F)c(Cl)c4)ncn3[C@@H]3CCC(F)(F)C3)nn12", "note": "[63′, (R)-6-(4-(3-chloro-4-fluorophenyl)-1-(3,3-difluorocyclopentyl)-1H-imidazol-5-yl)imidazo[1,2-b]pyridazine-3-carbonitrile]", "IC50": 0.9}
